Data as given in patent US5827845A, “Cephalosporin derivative” (priority 1993, dated 1998).

What was measured:
[1] = system: Staphylococcus aureus M133*; assay: minimum growth inhibitory concentration, serial dilution method; format: cell-based; conditions: S. aureus M133, methicillin-resistant (MRSA), sodium salts, 35° C., 18-20 hours; for MIC: Staphylococcus aureus, MRSA, read-out: Minimum growth inhibition concentrations (MIC)
Method: (§1) The determination of MIC. was conducted by inoculating the test microorganism to an incubation medium N for sensitive disc (a product of Nissui Seiyaku Co., Japan), effecting the incubation at 35° C. for 18-20 hours and then estimating the growth of the bacteria. The compounds tested were the sodium salts of Compound A to Compound F indicated below:
(§2) For the comparison purpose, the values similarly determined of MIC. ([…]) of ME1206 compound (sodium salt), Cefdinir (sodium salt) (abbreviated as CFDN) and Cefixime (sodium salt) (abbreviated as CFIX) are also shown in Table 1.

[2] = system: Enterococcus faecalis W-73; assay: as above; format: cell-based; conditions: sodium salts, 35° C., 18-20 hours; for MIC: Enterococcus faecalis, W73, Enterococcus faecalis W-73, read-out: Minimum growth inhibition concentrations (MIC); for Minimum growth inhibition concentrations (MIC): Enterococcus faecalis W-73
Method: as §1, §2

Morganella morganii 1510 = assay: as above; format: cell-based; conditions: sodium salts, 35° C., 18-20 hours; for MIC: Morganella morganii, 1510, Morganella morganii 1510, read-out: Minimum growth inhibition concentrations (MIC)
Method: as §1, §2

[3] = system: Staphylococcus aureus 209P JC-1; assay: as above; format: cell-based; conditions: S. aureus 209P JC-1, sodium salts, 35° C., 18-20 hours; for MIC: Staphylococcus aureus, 209P, read-out: Minimum growth inhibition concentrations (MIC)
Method: as §1, §2

Escherichia coli GN 206 = assay: as above; format: cell-based; conditions: sodium salts, 35° C., 18-20 hours; for MIC: Escherichia coli, GN206, Escherichia coli GN 206, read-out: Minimum growth inhibition concentrations (MIC)
Method: as §1, §2

[4] = system: Serratia marcescens No. 1; assay: as above; format: cell-based; conditions: sodium salts, 35° C., 18-20 hours; for MIC: read-out: Minimum growth inhibition concentrations (MIC)
Method: as §1, §2

[5] = system: Staphylococcus aureus M126*; assay: as above; format: cell-based; conditions: S. aureus M126, methicillin-resistant (MRSA), sodium salts, 35° C., 18-20 hours; for MIC: Staphylococcus aureus, read-out: Minimum growth inhibition concentrations (MIC)
Method: as §1, §2

[6] = system: Enterobacter cloacae G-0008; assay: as above; format: cell-based; conditions: 35° C., 18-20 hours; for MIC: G0008, sodium salts, read-out: Minimum growth inhibition concentrations (MIC)
Method: as §1, §2

[7] = system: Enterococcus hirae ATCC 8043; assay: as above; format: cell-based; conditions: sodium salts, 35° C., 18-20 hours; for MIC: Enterococcus hirae, ATCC8043, Enterococcus hirae ATCC 8043, read-out: Minimum growth inhibition concentrations (MIC)
Method: as §1, §2

[8] = blood concentration pharmacokinetics after subcutaneous injection in mice; format: in vivo, mice (Jcl;ICR strain); conditions: for concentration in blood (in words): injected subcutaneously, mice; for half-life / AUC: mouse, serum, sc, 0.5 mg; for AUC: read-out: AUC (area under the plasma concentration-time curve)
Method: The test procedure used was as follows: Thus, to mice of Jcl;ICR strain (4 week-aged, male) each was administered subcutaneously an aqueous solution containing 2.5 mg/ml of a test compound dissolved in distilled water sterilized for injections, in such a way that 0.2 ml of said aqueous solution (corresponding to a dosage of the test compound of 0.5 mg per mouse) was injected to one mouse. At the time-points of 5, 15, 30, 60 and 120 minutes after the administration, the blood samples were collected from the armpit of mouse. The blood samples so collected were each allowed to stand for about 2 hours at room temperature and then centrifuged for 10 minutes in a centrifugal separator to recover the serum. The serum obtained was mixed well with an equal volume of methanol added thereto, and the resulting mixture was centrifuged at 12,000 rpm. for 3 minutes. The supernatant obtained was passed through a filter (Sumplep LCR-13-LH) to obtain the serum sample to be assayed by a high performance liquid chromatography (HPLC). This serum sample was assayed by HPLC to measure quantitatively the concentration of the test compound in the serum.
For each test compound, its half-life value in blood and its AUC (Area under the plasma concentration-time curve),which are the pharmacokinetic parameters, were evaluated according to the method of Gauss-Newton.
For the comparison purpose, the ME1206 compound was also tested in the same manner as above.

[9] = sodium salt, subcutaneous, 0.5 mg per mouse, HPLC of serum

Structure (SMILES)	MIC [1]	MIC [2]	MIC (Morganella morganii 1510)	MIC [3]	MIC (Escherichia coli GN 206)	MIC [4]	MIC [5]	MIC [6]	MIC [7]	concentration in blood (in words) [8]	half-life [8, 9]	AUC [8, 9]	other results
C=CC1=C(C(=O)O)N2C(=O)[C@@H](NC(=O)/C(=N\O)c3csc(N)n3)[C@H]2SC1 [CFDN, Cefdinir, reference compound]	6.25 µg/mL	25 µg/mL	25 µg/mL	0.2 µg/mL	25 µg/mL	25 µg/mL	> 100 µg/mL	6.25 µg/mL	50 µg/mL	–	–	–	–
C=CC1=C(C(=O)O)N2C(=O)[C@@H](NC(=O)/C(=N\OCC(=O)O)c3csc(N)n3)[C@H]2SC1 [CFIX, Cefixime, reference compound]	100 µg/mL	> 100 µg/mL	50 µg/mL	12.5 µg/mL	50 µg/mL	0.78 µg/mL	> 100 µg/mL	0.78 µg/mL	> 100 µg/mL	–	–	–	–
Nc1nc(C(=NO)C(=O)NC2C(=O)N3C(C(=O)O)=C(C=Cc4scnc4Cl)CSC23)cs1 (stereo not drawn) [Compound A, 7-[2-Hydroxyimino-2-(2-aminothiazol-4-yl)acet-amido]-3-[2-(4-chlorothiazol-5-yl)vinyl]-3-cephem-4-carboxylic acid (syn-isomer, cis-isomer)]	6.25 µg/mL	6.25 µg/mL	12.5 µg/mL	0.1 µg/mL	1.56 µg/mL	1.56 µg/mL	25 µg/mL	1.56 µg/mL	12.5 µg/mL	capable of maintaining a high concentration in blood	1.1 h	211 µg·h/mL	–
Nc1nc(C(=NO)C(=O)NC2C(=O)N3C(C(=O)O)=C(C=Cc4scnc4C(F)(F)F)CSC23)cs1 (stereo not drawn) [Compound B, 7-[2-Hydroxyimino-2-(2-aminothiazol-4-yl)acet-amido]-3-[2-(4-trifluoromethylthiazol-5-yl)vinyl]-3-cephem-4-carboxylic acid (syn-isomer, cis-isomer)]	6.25 µg/mL	12.5 µg/mL	1.56 µg/mL	0.39 µg/mL	1.56 µg/mL	1.56 µg/mL	25 µg/mL	1.56 µg/mL	6.25 µg/mL	capable of maintaining a high concentration in blood	0.7 h	149 µg·h/mL	–
Cc1ncsc1C=CC1=C(C(=O)O)N2C(=O)C(NC(=O)C(=NO)c3csc(N)n3)C2SC1 (stereo not drawn) [Compound C, 7-[2-Hydroxyimino-2-(2-aminothiazol-4-yl)acet-amido]-3-[2-(4-methylthiazol-5-yl)vinyl]-3-cephem-4-carboxylic acid (syn-isomer, cis-isomer)]	6.25 µg/mL	12.5 µg/mL	1.56 µg/mL	0.2 µg/mL	3.13 µg/mL	1.56 µg/mL	25 µg/mL	0.78 µg/mL	6.25 µg/mL	capable of maintaining a high concentration in blood	1.4 h	249 µg·h/mL	AUC (area under the plasma concentration-time curve) [8, 9]: 315.5 µg·h/mL; Half-life value in blood [8, 9]: 1.7 h
Nc1nc(C(=NO)C(=O)NC2C(=O)N3C(C(=O)O)=C(C=Cc4cncs4)CSC23)cs1 (stereo not drawn) [Compound D, 7-[2-Hydroxyimino-2-(2-aminothiazol-4-yl)acet-amido]-3-[2-(thiazol-5-yl)vinyl]-3-cephem-4-carboxylic acid(syn-isomer, cis-isomer)]	3.13 µg/mL	–	12.5 µg/mL	0.1 µg/mL	1.56 µg/mL	0.78 µg/mL	25 µg/mL	0.78 µg/mL	12.5 µg/mL	capable of maintaining a high concentration in blood	–	–	Minimum growth inhibition concentrations (MIC) [2]: 1.56 µg/mL
Nc1nc(C(=NO)C(=O)NC2C(=O)N3C(C(=O)O)=C(C=Cc4cncs4)CSC23)cs1 (stereo not drawn) [Compound E, 7-[2-Hydroxyimino-2-(2-aminothiazol-4-yl)acet-amido]-3-[2-(thiazol-5-yl)vinyl]-3-cephem-4-carboxylic acid (syn-isomer, trans-isomer)]	–	–	–	–	–	–	–	–	–	capable of maintaining a high concentration in blood	1.1 h	253 µg·h/mL	Minimum growth inhibition concentrations (MIC) [1]: 6.25 µg/mL; Minimum growth inhibition concentrations (MIC) [2]: 3.13 µg/mL; Minimum growth inhibition concentrations (MIC) (Morganella morganii 1510; Morganella morganii 1510): 6.25 µg/mL; Minimum growth inhibition concentrations (MIC) [3]: 0.20 µg/mL; Minimum growth inhibition concentrations (MIC) (Escherichia coli GN 206; Escherichia coli GN 206): 0.78 µg/mL; Minimum growth inhibition concentrations (MIC) [4]: 0.78 µg/mL; Minimum growth inhibition concentrations (MIC) [5]: 25 µg/mL; Minimum growth inhibition concentrations (MIC) ([6]; sodium salts): 0.78 µg/mL; Minimum growth inhibition concentrations (MIC) ([7]; Enterococcus hirae ATCC 8043): 25 µg/mL
Cc1ncsc1C=CC1=C(C(=O)O)N2C(=O)C(NC(=O)C(=NO)c3nsc(N)n3)C2SC1 (stereo not drawn) [Compound F, 7-[2-Hydroxyimino-2-(5-amino-1,2,4-thiadiazol-3-yl)acetamido]-3-[2-(4-methylthiazol-5-yl)vinyl]-3-cephem-4-carboxylic acid (syn-isomer, cis-isomer)]	3.13 µg/mL	25 µg/mL	25 µg/mL	0.39 µg/mL	6.25 µg/mL	3.13 µg/mL	50 µg/mL	1.56 µg/mL	25 µg/mL	capable of maintaining a high concentration in blood	0.9 h	163 µg·h/mL	–
CON=C(C(=O)NC1C(=O)N2C(C(=O)O)=C(C=Cc3scnc3C)CSC12)c1csc(N)n1 (stereo not drawn) [ME1206, 7-[2-methoxyimino-2-(2-aminothiazol-4-yl)acetamido]-3-[2-(4-methylthiazol-5-yl)vinyl]-3-cephem-4-carboxylic acid (syn-isomer, cis-isomer), reference compound]	25 µg/mL	100 µg/mL	25 µg/mL	0.39 µg/mL	0.78 µg/mL	0.39 µg/mL	100 µg/mL	1.56 µg/mL	50 µg/mL	–	1.1 h	184 µg·h/mL	–
